Series [1] in a line: animal studies of the three salts vs Ketoprofen acid and Ketoprofen sodium salt: distribution and kinetics. Type of series: in vivo, experimental animals. As to conditions: for active substance concentration in the inflamed site: injection, vs Ketoprofen sodium salt; for kinetic parameters after oral administration: vs Ketoprofen acid and Ketoprofen sodium salt. From the text:
The three above mentioned Ketoprofen salts were compared with Ketoprofen acid and Ketoprofen sodium salt in animal studies.

Series [2] deals with inflammatory exudate (IE). Kind of series: foreign body (sponge) method in the rat: inflammatory exudate volume. Type of series: in vivo. As to conditions: for IE (inflammatory exudate) volume / % inhibition versus controls of IE: 8 hours; for IE (inflammatory exudate) volume: mean ± MSE, controls 5.15 ± 0.28. The protocol:
(§1) These tests involved the use of 100 male CD strain rats (Charles River, Calco, LC, Italy) weighing 180±8 g. The animals were fasted for 12 hours (water ad libitum) before being used for the experiment.
(§2) The inflammatory reaction with the formation of exudate was induced by using sterilized polyester sponges (4×1.5×0.5 cm) soaked in carrageen dissolved at a 2% concentration in sterile physiological solution. The rats were anesthetized lightly with ether and two sponges per rat were implanted subcutaneously in a previously shaven dorsal area.
(§3) The sponges were removed 8 hours later after having sacrificed the animals by ether euthanasia, and immediately placed in large polyethylene 50 ml test tubes containing 10 ml of heparinized physiological solution. The test tubes were then subjected to centrifugation (1000 rotations; 15 minutes), followed by removal of the sponges and accurate measurement of the volume of the remaining fluid. Always using the Higgs et al. method, the acid lipids present in the fluid were extracted in chloroform with prior dilution in ethanol and acidification to pH 3. After complete evaporation of the chloroform, the remaining dry residue was dissolved in physiological solution and used for the immunoenzymatic assay of prostaglandin E2 (PGE2).
(§4) All the other reagents used for the tests were purchased from Merck-Bracco (Milan, Italy).

For series [3], the system named is carrageen edema. In words: carrageen edema test in the rat (hind paw volume, plethysmometer). The conditions noted are these: rat, oral; for evolution of paw volume (delta in ml) at 1st hour / evolution of paw volume (delta in ml) at 2nd hour / evolution of paw volume (delta in ml) at 3rd hour / evolution of paw volume (delta in ml) at 4th hour / evolution of paw volume (delta in ml) at 5th hour / evolution of paw volume (delta in ml) at 6th hour: mean ± MSE; for % inhibition vs controls (paw edema AUC): p < 0.001; for AUC (mean ± MSE) of increase in paw volume: paw volume (delta in ml) vs time (0 to 6 hours), controls 4.23 ± 0.26; for oral ED50 (carrageen edema, extrapolated from AUC): 95% conf. lim. KGS 0.733-1.474, KLS 1.198-1.567.

In series [4] the test system is prostaglandin E2 (PGE2). In words: foreign body (sponge) method in the rat: PGE2 in the inflammatory exudate (immunoenzymatic assay). The conditions noted are these: rat, oral, listed as KLS; for PGE2 concentration in the inflammatory exudate / % inhibition versus controls of PGE2: 8 hours; for PGE2 concentration in the inflammatory exudate: mean, controls 98.7 ± 4.7. Type of series: in vivo. The protocol: as §1, §2, §3, §4

Where [5] appears, read: rat, oral, 0.5 mg/kg, listed as KLS.
[6] abbreviates: rat, oral, 1 mg/kg, listed as KLS.
Setting [7] is: rat, oral, 2 mg/kg, listed as KLS.
Where [8] appears, read: rat, oral, 4 mg/kg, listed as KLS.

Where a name gives a salt, the structure may show the parent alone.

Turning to `CC(C(=O)O)c1cccc(C(=O)c2ccccc2)c1` (stereo not shown) [Ketoprofen Hydroxyproline salt], in series [1], the “active substance concentration in the inflamed site” value was “intermediate concentrations between the sodium salt and the Glucosamine salt”; the “kinetic parameters after oral administration” value is “significantly different”.
As for `CC(C(=O)O)c1cccc(C(=O)c2ccccc2)c1` (stereo not shown) [Ketoprofen Lysine salt], the “control of the inflammatory response to sponge implantation” value in series [2] (rat, 0.5, 1, 2 and 4 mg/kg per os) is “able to control the inflammatory response”. For the same molecule, the “IE (inflammatory exudate) volume” value stood at 4.33 ± 0.26 mL in series [2] (setting [5]), 3.82 ± 0.15 mL in series [2] (setting [6]), 2.97 ± 0.19 mL in series [2] (setting [7]) and 1.68 ± 0.14 mL in series [2] (setting [8]). For the same molecule, the “% inhibition versus controls of IE” value in series [2] (setting [5]) is on record as 15.9%; in series [2] (setting [6]), 25.8%; in series [2] (setting [7]) it was 42.3%; in series [2] (setting [8]) it was 67.4%. In series [2] (rat, oral, 95% confidence limits KGS 1.802-2.381, KLS 2.334-3.094, 480 min, listed as KLS), the “IE oral ED50” value came to 2.714 mg/kg. The “evolution of paw volume (delta in ml) at 1st hour” value was determined as 0.32 ± 0.02 mL in series [3] (0.5 mg/kg, controls 0.40 ± 0.02, listed as KLS); 0.24 ± 0.02 mL in series [3] (1 mg/kg, listed as KLS); 0.13 ± 0.02 mL in series [3] (2 mg/kg, listed as KLS). The “evolution of paw volume (delta in ml) at 2nd hour” value in series [3] (0.5 mg/kg, controls 0.71 ± 0.02, listed as KLS) was found to be 0.53 ± 0.03 mL; in series [3] (1 mg/kg, listed as KLS), 0.43 ± 0.03 mL; in series [3] (2 mg/kg, listed as KLS), 0.23 ± 0.02 mL. Also, the “evolution of paw volume (delta in ml) at 3rd hour” value in series [3] (0.5 mg/kg, controls 0.87 ± 0.03, listed as KLS) was 0.66 ± 0.04 mL; in series [3] (1 mg/kg, listed as KLS), 0.54 ± 0.03 mL; in series [3] (2 mg/kg, listed as KLS), 0.28 ± 0.02 mL. Moreover, the “evolution of paw volume (delta in ml) at 4th hour” value in series [3] (0.5 mg/kg, controls 0.93 ± 0.03, listed as KLS) is 0.70 ± 0.03 mL; in series [3] (1 mg/kg, listed as KLS) it was 0.59 ± 0.03 mL; in series [3] (2 mg/kg, listed as KLS), 0.29 ± 0.02 mL. Moreover, the “evolution of paw volume (delta in ml) at 5th hour” value in series [3] (0.5 mg/kg, controls 0.90 ± 0.04, listed as KLS) worked out at 0.68 ± 0.02 mL; in series [3] (1 mg/kg, listed as KLS), 0.57 ± 0.03 mL; in series [3] (2 mg/kg, listed as KLS), 0.28 ± 0.02 mL. Moreover, the “evolution of paw volume (delta in ml) at 6th hour” value in series [3] (0.5 mg/kg, controls 0.84 ± 0.04, listed as KLS) was determined as 0.64 ± 0.03 mL; in series [3] (1 mg/kg, listed as KLS) it was 0.49 ± 0.03 mL; in series [3] (2 mg/kg, listed as KLS), 0.23 ± 0.03 mL. For the same molecule, the “% inhibition vs controls (paw edema AUC)” value in series [3] (0.5 mg/kg, listed as KLS) is recorded as 24.1%; in series [3] (1 mg/kg, listed as KLS) it was 38.0%; in series [3] (2 mg/kg, listed as KLS) it was 68.6%. Besides, the “AUC (mean ± MSE) of increase in paw volume” value in series [3] (0.5 mg/kg, listed as KLS, 0.5 mg/kg) amounted to 3.21 ± 0.17; in series [3] (1 mg/kg, listed as KLS, 1 mg/kg), 2.62 ± 0.12; in series [3] (2 mg/kg, listed as KLS, 2 mg/kg), 1.33 ± 0.07. In addition, the “oral ED50 (carrageen edema, extrapolated from AUC)” value in series [3] and in series [3] (listed as KLS) was 1.383 mg/kg throughout. The “PGE2 concentration in the inflammatory exudate” value turned out to be 78.1 ng/mL in series [4] (0.5 mg/kg), 67.9 ng/mL in series [4] (1 mg/kg), 55.6 ng/mL in series [4] (2 mg/kg) and 32.8 ng/mL in series [4] (4 mg/kg). The “% inhibition versus controls of PGE2” value in series [4] (0.5 mg/kg) is 20.9%; in series [4] (1 mg/kg), 31.2%; in series [4] (2 mg/kg), 43.7%; in series [4] (4 mg/kg) it was 66.8%. For the same molecule, in series [4] (95% confidence limits KGS 1.848-2.131, KLS 2.215-3.005, 480 min), the “PGE2 oral ED50” value is on record as 2.610 mg/kg.
Regarding `CC(C(=O)O)c1cccc(C(=O)c2ccccc2)c1` (stereo not shown) [Ketoprofen Proline salt], in series [1], the “active substance concentration in the inflamed site” value is “intermediate concentrations between the sodium salt and the Glucosamine salt”; the “kinetic parameters after oral administration” value is reported as “significantly different”.

(Values after patent US6291527A (priority 1998, dated 2001).)
